# Assay results from ChEMBL document CHEMBL1135186, “Novel diphenylalkyl piperazine derivatives with dual calcium antagonistic and antioxidative activities” (Bioorg Med Chem Lett, 2002).
# Tests used:
# Canis familiaris [1] = organism: Canis familiaris; experiment: Concentration of the test compound required to inhibit the auto oxidative lipid peroxidations in canine brain homogenates by 50% was determined; format: functional; settings: Canis lupus familiaris
# Canis familiaris [2] = organism: Canis familiaris; experiment: Inhibitory activity against KCl induced contractile response in isolated canine basilar artery was determined expressed as vasodilation effect; format: functional, Canis lupus familiaris
# Canis familiaris [3] = organism: Canis familiaris; experiment: Inhibitory activity against KCl induced contractile response in isolated canine coronary artery was determined expressed as vasodilation effect; format: functional, Canis lupus familiaris
# Canis familiaris [4] = organism: Canis familiaris; experiment: Inhibitory activity against KCl induced contractile response in isolated canine mesenteric artery was determined expressed as vasodilation effect; format: functional, Canis lupus familiaris
# Canis familiaris [5] = organism: Canis familiaris; experiment: Inhibitory activity against KCl induced contractile response in isolated canine renal artery was determined expressed as vasodilation effect; format: functional, Canis lupus familiaris
# Rattus norvegicus = organism: Rattus norvegicus; experiment: PD2 value was calculated as -log value of the concentration of the test compound to inhibit 60 mM KCl-induced contractions to 50% expressed as calcium antagonistic activity; format: functional
IC50 (Canis familiaris [1]) [µM],Compound,PD2 (Canis familiaris [2]),PD2 (Canis familiaris [3]),PD2 (Canis familiaris [4]),PD2 (Canis familiaris [5]),PD2 (Rattus norvegicus)
15,OC(CSc1ccccc1)CN1CCN(CCCC(c2ccc(F)cc2)c2ccc(F)cc2)CC1 (centres undefined),7,6.38,5.8,5.73,6.79
390,CC(=O)N(CC(O)CN1CCN(CCCC(c2ccc(F)cc2)c2ccc(F)cc2)CC1)c1ccccc1 (centres undefined),–,–,–,–,5.98
15,COC(CNc1ccccc1)CN1CCN(CCCC(c2ccc(F)cc2)c2ccc(F)cc2)CC1 (centres undefined),–,–,–,–,–
6.5,OC(CNc1ccccc1)CN1CCN(CCCC(c2ccc(F)cc2)c2ccc(F)cc2)CC1 (centres undefined),6.76,6.32,6.1,6.27,6.7
28,OC(CSCc1ccccc1)CN1CCN(CCCC(c2ccc(F)cc2)c2ccc(F)cc2)CC1 (centres undefined),–,–,–,–,6.93
20,CC(=O)OC(CSc1ccccc1)CN1CCN(CCCC(c2ccc(F)cc2)c2ccc(F)cc2)CC1 (centres undefined),–,–,–,–,6.55
19,CN(CC(O)CN1CCN(CCCC(c2ccc(F)cc2)c2ccc(F)cc2)CC1)c1ccccc1 (centres undefined),–,–,–,–,5.83
13,CC(=O)OC(CNc1ccccc1)CN1CCN(CCCC(c2ccc(F)cc2)c2ccc(F)cc2)CC1 (centres undefined),–,–,–,–,6.38
6.9,OC(CNCc1ccccc1)CN1CCN(CCCC(c2ccc(F)cc2)c2ccc(F)cc2)CC1 (centres undefined),–,–,–,–,5.85
20,COC(CSc1ccccc1)CN1CCN(CCCC(c2ccc(F)cc2)c2ccc(F)cc2)CC1 (centres undefined),–,–,–,–,6.69
1.5,Cc1c(C)c2c(c(C)c1O)CC[C@@](C)(CCC[C@H](C)CCC[C@H](C)CCCC(C)C)O2 [ALPHA-TOCOPHEROL],–,–,–,–,–
–,Fc1ccc(C(c2ccc(F)cc2)N2CCN(C/C=C/c3ccccc3)CC2)cc1 [FLUNARIZINE],–,–,–,–,5.98
